Results on 27 molecules are retold here after US20100256357A1, “HETEROCYCLES USEFUL AS INHIBITORS OF CARBONIC ANHYDRASE” (Agouron Pharmaceuticals, Inc., priority 2006, published 2010).

A value given as a limit tells only on which side of the number the result lay.

The target in one assay is T1, human CA-IV (Homo sapiens, UniProt P22748).
T1 construct: made in house; host or cells: Escherichia coli BL21(DE3)
T1 sequence (P22748 19-284 limits assumed): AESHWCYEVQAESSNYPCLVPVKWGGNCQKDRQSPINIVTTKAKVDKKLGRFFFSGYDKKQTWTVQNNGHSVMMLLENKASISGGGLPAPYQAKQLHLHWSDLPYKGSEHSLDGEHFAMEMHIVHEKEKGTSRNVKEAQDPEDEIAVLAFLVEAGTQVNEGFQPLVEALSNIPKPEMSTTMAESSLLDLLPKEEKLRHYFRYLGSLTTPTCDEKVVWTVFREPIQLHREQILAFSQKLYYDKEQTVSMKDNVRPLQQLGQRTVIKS
Description: Carbonic Anhydrase-IV (CA-IV) Fluorescence Polarization Assay-IC50 Determination. In kind it is binding. The conditions noted are these: read-out: IC50_CAIV. As to the method: Carbonic Anhydrase-IV (CA-IV) Fluorescence Polarization Assay-IC50 Determination
These cells were grown in Luria broth (LB) media (Biomyx) supplemented with 800 uM ZnCl2 at 37° C. until an O.D.600 of 0.7, at which point the cells were induced with 100 uM isopropyl-beta-D-thiogalactopyranoside (IPTG) for 20 hours at 20° C. The frozen pellet was resuspended in 50mM 2-morpholinoethanesulfonic acid (MES) at pH 6.0, 100 mM NaCl, 800 uM ZnCl2 and EDTA-Free protease inhibitors (Roche). The cells were lysed with a microfluidizer, the lysate was spun at 40,000 rpm for 45 minutes at 4° C., and the soluble fraction was dialyzed overnight at 4° C. in 50 mM MES pH 6.0, and 100 mM NaCl. The soluble fraction was then put over a 100 ml SP-Sepharose High Performance (GE Healthcare) column and eluted with a 50 mM MES pH 6.0, 750 mM NaCl gradient. The peak fractions were then concentrated, via an Amicon Ultra-4 10,000 MWCO (Millipore) spin column to 2.0 mL and loaded onto a Sephacryl S-100 High Resolution (GE Healthcare) column in 25 mM tris(hydroxymethyl)aminomethane hydrochloride (Tris-HCl) pH 7.0, and 100 mM NaCl. The peak fractions were then concentrated, via an Amicon Ultra-4 10,000 MWCO (Millipore) spin column, to 7.0 mg/mL and left exposed at room temperature overnight. […] T.; et al. Carbonic Anhydrase Inhibitors. Med. Res. Rev. […]
Assays were conducted in a final volume of 100 μL in 50 mM Tris/HCl (pH 7.6), 100 mM Na2SO4 and 0.005% Tween-20 in a 96-well black assay plate.
Turning to `NS(=O)(=O)c1ccc(-n2nc(CO)c3c2CCCC3)cc1` [qq-3d, 4-[3-(hydroxymethyl)-4,5,6,7-tetrahydro-1H-indazol-1-yl]benzenesulfonamide], the IC50 was at least 5000 nM.
The same measure, in the same setting: with `CCCCN(C)Cc1cc(Cc2ccc(Cl)cc2)n(-c2ccc(S(N)(=O)=O)cc2)n1` [QQ-1n, 4-[3-{[butyl(methyl)amino]methyl}-5-(4-chlorobenzyl)-1H-pyrazol-1-yl]benzenesulfonamide] the figure was 455 nM; with `CCNCc1cc(S(N)(=O)=O)ccc1-n1nc(C(F)(F)F)c2c1CCCC2` [LL-1, 3-[(Ethylamino)methyl]-4-[3-(trifluoromethyl)-4,5,6,7-tetrahydro-1H-indazol-1-yl]-benzene-sulfonamide], at least 5000 nM.
Still for that read-out and setting: with `CCNC(=O)c1cc(C)n(-c2ccc(S(N)(=O)=O)cc2C(=O)OC(C)C)n1` [KK-1r] the figure was 1310 nM; with `C[C@@H]1CN(Cc2cc(Cc3ccccc3)n(-c3ccc(S(N)(=O)=O)cc3F)n2)C[C@H](C)O1` [QQ-1i, 4-(5-benzyl-3-{[(2R,6S)-2,6-dimethylmorpholin-4-yl]methyl}-1H-pyrazol-1-yl)-3-fluorobenzenesulfonamide], 480 nM; with `CN(Cc1cc(Cc2ccc(Cl)cc2)n(-c2ccc(S(N)(=O)=O)cc2)n1)C1CCCCC1` [QQ-1o, 4-[5-(4-chlorobenzyl)-3-{[cyclohexyl(methyl)amino]methyl}-1H-pyrazol-1-yl]benzenesulfonamide], 308 nM.
For `CCCN(C)Cc1cc(Cc2ccccc2)n(-c2ccc(S(N)(=O)=O)cc2F)n1` [QQ-1, 4-(5-benzyl-3-{[methyl(propyl)amino]methyl}-1H-pyrazol-1-yl)-3-fluorobenzenesulfonamide], the IC50 amounted to 301 nM.
On the same count and under the same terms, for `NS(=O)(=O)c1ccc(-n2nc(C(F)(F)F)c3c2CCNC3)c(C(=O)NCc2ccncc2)c1` [KK-1n, 5-(aminosulfonyl)-N-(pyridin-4-ylmethyl)-2-[3-(trifluoromethyl)-4,5,6,7-tetrahydro-1H-pyrazolo[4,3-c]pyridin-1-yl]benzamide] the value was over 5000 nM; for `NS(=O)(=O)c1ccc(-n2nc(CO)cc2Cc2ccc(Br)cc2)c(F)c1` [qq-3c, 4-[5-(4-bromobenzyl)-3-(hydroxymethyl)-1H-pyrazol-1-yl]-3-fluorobenzenesulfonamide], 468 nM.
Consider `NS(=O)(=O)c1ccc(-n2nc(C(=O)O)cc2Cc2ccc(Cl)cc2)cc1` [pp-2b, 1-[4-(aminosulfonyl)phenyl]-5-(4-chlorobenzyl]-1H-pyrazole-3-carboxylic acid], for which the IC50 worked out at 459 nM.
Still for that read-out and setting: for `CCNC(=O)c1cc(C)n(-c2ccc(S(N)(=O)=O)cc2C(=O)NCC)n1` [KK-1m, 1-{4-(aminosulfonyl)-2-[(ethylamino)carbonyl]phenyl}-N-ethyl-5-methyl-1H-pyrazole-3-carboxamide] the value was over 5000 nM.
On the same count and under the same terms, with `NS(=O)(=O)c1ccc(-n2nc(CO)cc2Cc2ccccc2)c(F)c1` [qq-3, 4-[5-Benzyl-3-(hydroxymethyl)-1H-pyrazol-1-yl]-3-fluorobenzenesulfonamide] the figure was 372 nM; with `CN(CCc1ccccn1)Cc1cc(Cc2ccc(Cl)cc2)n(-c2ccc(S(N)(=O)=O)cc2)n1` [QQ-1c, 4-[5-(4-chlorobenzyl)-3-{[methyl(2-pyridin-2-ylethyl)amino]methyl}-1H-pyrazol-1-yl]benzenesulfonamide], 380 nM.
The same measure, in the same setting: for `Cc1cccc(Cc2cc(CN3CCC(F)(F)C3)nn2-c2ccc(S(N)(=O)=O)cc2F)c1` [PP-1, 4-[3-[(3,3-difluoropyrrolidin-1-yl)methyl]-5-(3-methylbenzyl)-1H-pyrazol-1-yl]-3-fluorobenzenesulfonamide] the value was 114 nM; for `C[C@@H]1CN(Cc2cc(Cc3ccccc3)n(-c3ccc(S(N)(=O)=O)cc3)n2)C[C@H](C)O1` [QQ-1d, 4-(5-benzyl-3-{[(2R,6S)-2,6-dimethylmorpholin-4-yl]methyl}-1H-pyrazol-1-yl)benzenesulfonamide], 400 nM.

The target of the next assay is T2, human CA-II (Homo sapiens, UniProt P00918).
T2 construct: purchased Sigma-Aldrich C6165
Description: Carbonic Anhydrase-II (CA-II) Fluorimetric Assay-IC50 Determination. In kind it is biochemical. The conditions noted are these: Kd ND, IC50 given instead; read-out: CA-II IC50 (where Kd is ND). As to the method: Carbonic Anhydrase-II (CA-II) Fluorimetric Assay-IC50 Determination
Compounds were diluted in DMSO at the concentration of 1 mM, then 50 μM and transferred to a 96-well plate for further dilutions (1:3 dilution, 11 points) in duplicate. Highest final concentration of compound in this CA-II Fluorimetric assay is 1 μM. Assays were conducted in a final volume of 100 μL in 50 mM Tris/HCl (pH 7.6), 100 mM Na2SO4 and 0.005% Tween-20 in a 96-well black assay plate. Fluorescein diacetate was used as the substrate. Enzyme inhibition was determined by pipetting 8 μL of human CA-II (5 nM, from Sigma-Aldrich, product #: C6165) into assay plate contained 2 μL of compound and 2 μL of substrate (10 μM) in 88 μL of assay buffer. The rate of the hydrolysis of fluorescein diacetate were measured spectrophometrically at 488 nm (excitation), 538 nm (emission) and 530 nm (cutoff) using a Molecular Devices SpectraMax M2 fluorescence reader at 25° C.
As to `CC(C)C1(CO)CCN(C(=O)c2nc(Cc3ccccc3)n(-c3ccc(S(N)(=O)=O)cc3)n2)CC1` [Example R-73, 4-(5-benzyl-3-{[4-(hydroxymethyl)-4-isopropylpiperidin-1-yl]carbonyl}-1H-124-triazol-1-yl)benzenesulfonamide], the IC50 was found to be 3.5 nM.
Still for that read-out and setting: with `N#CCCN(C(=O)c1nc(Cc2ccccc2)n(-c2ccc(S(N)(=O)=O)cc2)n1)C1CCCC1` [Example R-74, 1-[4-(aminosulfonyl)phenyl]-5-benzyl-N-(2-cyanoethyl)-N-cyclopentyl-1H-124-triazole-3-carboxamide] the figure was 3.43 nM.

Still in this assay, the particulars now being: at 10 nM (c7); read-out: CA-II % inhibition at concentration of column 7.
With `Cc1noc(C2CCN(C(=O)c3nc(Cc4ccccc4)n(-c4ccc(S(N)(=O)=O)cc4)n3)C2)n1` (centres unmarked) [Example R-63, 4-(5-benzyl-3-{[3-(3-methyl-124-oxadiazol-5-yl)pyrrolidin-1-yl]carbonyl}-1H-124-triazol-1-yl)benzenesulfonamide], the inhibition at 0.01 µM was found to be 95%.
Still for that read-out and setting: with `CCCN(CCc1ccccn1)C(=O)c1nc(Cc2ccccc2)n(-c2ccc(S(N)(=O)=O)cc2)n1` [Example R-58, 1-[4-(aminosulfonyl)phenyl]-5-benzyl-N-propyl-N-(2-pyridin-2-ylethyl)-1H-124-triazole-3-carboxamide] the figure was 98%; with `NS(=O)(=O)c1ccc(-n2nc(C(=O)N3CCCC(c4cc[nH]n4)C3)nc2Cc2ccccc2)cc1` (centres unmarked) [Example R-67, 4-(5-benzyl-3-{[3-(1H-pyrazol-3-yl)piperidin-1-yl]carbonyl}-1H-124-triazol-1-yl)benzenesulfonamide], 97%; with `NS(=O)(=O)c1ccc(-n2nc(C(=O)N3CCC(c4cccnc4)C3)nc2Cc2ccccc2)cc1` (centres unmarked) [Example R-69, 4-{5-benzyl-3-[(3-pyridin-3-ylpyrrolidin-1-yl)carbonyl]-1H-124-triazol-1-yl}benzenesulfonamide], 97%.
The same measure, in the same setting: for `NS(=O)(=O)c1ccc(-n2nc(C(=O)N3CCC(c4ccccn4)C3)nc2Cc2ccccc2)cc1` (centres unmarked) [Example R-55, 4-(5-benzyl-3-[(3-pyridin-2-ylpyrrolidin-1-yl)carbonyl]-1H-124-triazol-1-yl)benzenesulfonamide] the value was 97%.
On the same count and under the same terms, for `NS(=O)(=O)c1ccc(-n2nc(C(=O)N3CCc4conc4CC3)nc2Cc2ccccc2)cc1` [Example R-61, 4-[5-benzyl-3-(4578-tetrahydro-6H-isoxazolo[34-d]azepin-6-ylcarbonyl)-1H-124-triazol-1-yl]benzenesulfonamide] the value was 94%.

Still in this assay, the particulars now being: at 100 nM (c7); read-out: CA-II % inhibition at concentration of column 7.
As to `NS(=O)(=O)c1ccc(-n2nc(C(=O)N3CC4CCCC3C4)nc2Cc2ccccc2)cc1` (centres unmarked) [Example R-26, 4-[3-(6-azabicyclo[3.2.1]oct-6-ylcarbonyl)-5-benzyl-1H-124-triazol-1-yl]bezenesulfonamide], the inhibition at 0.1 µM came out at 99%.
The same measure, in the same setting: with `CCN(CCOC)C(=O)c1nc(Cc2ccccc2)n(-c2ccc(S(N)(=O)=O)cc2)n1` [Example R-34, 1-[4-(aminosulfonyl)phenyl]-5-benzyl-N-ethyl-N-(2-methoxyethyl)-1H-124-triazole-3-carboxamide] the figure was 99%.
`CC(C)CCN(C)C(=O)c1nc(Cc2ccccc2)n(-c2ccc(S(N)(=O)=O)cc2)n1` [Example R-31, 1-[4-(aminosulfonyl)phenyl]-5-benzyl-N-methyl-N-(3-methylbutyl)-1H-124-triazole-3-carboxamide]: the inhibition at 0.1 µM was 100%.
On the same count and under the same terms, for `NS(=O)(=O)c1ccc(-n2nc(C(=O)N3CCCN(C=O)CC3)nc2Cc2ccccc2)cc1` [Example R-27, 4-(5-benzyl-3-[(4-formyl-14-diazepan-1-yl)carbonyl]-1H-124-triazol-1-yl)benzenesulfonamide] the value was 99%.

The assay is the same for the next values; noted with them: given instead of Kd (ND); read-out: CA-II IC50.
Consider `NS(=O)(=O)c1ccc(-n2nc(C(=O)N3CC4CCCC3C4)nc2Cc2ccccc2)cc1` (centres unmarked) [Example R-26, 4-[3-(6-azabicyclo[3.2.1]oct-6-ylcarbonyl)-5-benzyl-1H-124-triazol-1-yl]bezenesulfonamide], for which the IC50 is 2.84 nM.
On the same count and under the same terms, with `CCN(CCOC)C(=O)c1nc(Cc2ccccc2)n(-c2ccc(S(N)(=O)=O)cc2)n1` [Example R-34, 1-[4-(aminosulfonyl)phenyl]-5-benzyl-N-ethyl-N-(2-methoxyethyl)-1H-124-triazole-3-carboxamide] the figure was 2.99 nM; with `NS(=O)(=O)c1ccc(-n2nc(C(=O)N3CCCC(c4cc[nH]n4)C3)nc2Cc2ccccc2)cc1` (centres unmarked) [Example R-67, 4-(5-benzyl-3-{[3-(1H-pyrazol-3-yl)piperidin-1-yl]carbonyl}-1H-124-triazol-1-yl)benzenesulfonamide], 3.72 nM; with `CC(C)CCN(C)C(=O)c1nc(Cc2ccccc2)n(-c2ccc(S(N)(=O)=O)cc2)n1` [Example R-31, 1-[4-(aminosulfonyl)phenyl]-5-benzyl-N-methyl-N-(3-methylbutyl)-1H-124-triazole-3-carboxamide], 3.03 nM.
The same measure, in the same setting: for `NS(=O)(=O)c1ccc(-n2nc(C(=O)N3CCC(c4cccnc4)C3)nc2Cc2ccccc2)cc1` (centres unmarked) [Example R-69, 4-{5-benzyl-3-[(3-pyridin-3-ylpyrrolidin-1-yl)carbonyl]-1H-124-triazol-1-yl}benzenesulfonamide] the value was 3.49 nM.
